The test system of this experiment is HIV-1 (NL4-3 strain). Briefly: Assay for inhibition of HIV replication (VIKING; MT4-gag-GFP reporter cell line). Format: cell-based. How it is done:
This assay is a kinetic assay that employs a reporter cell line (MT4-gag-GFP) to quantify the number of new cells infected in each round of replication.
MT4-GFP cells (250,000 cells/ml) were bulk-infected with HIV-1 (NL4-3 strain) at low multiplicity of infection (MOI) in RPMI cell culture medium+10% FBS for 24 hours. Cells were then washed once in RPMI cell culture medium+10% FBS and resuspended in RPMI cell culture medium+0% or 10% or 100% normal human serum (NHS). Test compounds were serial-diluted in DMSO on an ECHO® liquid handler. The infected MT4-GFP cells were added to a 384-well poly-D-lysine coated black plate with clear bottom in which the diluted test compounds were placed. The cells were seeded at 8,000 cells per well and the final DMSO concentration was 0.4%. The infected cells (Green GFP cells) were quantified at both 24 and 48 hours post incubation using Acumen eX3. Viral reproductive ratio (R0) was determined using the number of infected cells at 48 hours divided by the number of infected cells at 24 hours. Percent viral growth inhibition was calculated by [1−(R−Rtripledrug)/(RDMSO−Rtripledrug)]*100. Compound potency IP or IC50 was determined by a 4-parameter dose response curve analysis. In vitro potency in the cell-based assay in the abscence of normal human serum (NHS) and the presence of 100% NHS.

[1] abbreviates: MT4-GFP cells infected with HIV-1 NL4-3, 0% normal human serum (NHS), read-out: VIKING IP50 (nM) with 0% NHS.
Where [2] appears, read: MT4-GFP cells infected with HIV-1 NL4-3, 100% normal human serum (NHS), read-out: VIKING IP50 (nM) with 100% NHS.
Setting [3] is: Human immunodeficiency virus 1, NL43, MT4-GFP cells infected with HIV-1 NL4-3, 0% normal human serum (NHS), read-out: VIKING IP50 (nM) with 0% NHS.
Where [4] appears, read: Human immunodeficiency virus 1, NL43, MT4-GFP cells infected with HIV-1 NL4-3, 100% normal human serum (NHS), read-out: VIKING IP50 (nM) with 100% NHS.

The structures appear in SMILES notation. Like-named read-outs stand apart in the source and are kept apart here.

On to `C[C@H]1CN(S(C)(=O)=O)C2C3CCc4c(C(=O)NCc5cccc(Cl)c5F)c(=O)c(O)c(n43)C(=O)N21` (stereo partly drawn) [Compound 116], for which the IC50 by setting is: under setting [1], 4.57 nM; under setting [2], 195 nM.

In the case of `COC1CC2C3OCCN3C(=O)c3c(O)c(=O)c(C(=O)NCc4ccc(F)cc4F)c1n32` (stereo not drawn) [Compound 72], the IC50 under setting [1] came to 0.754 nM and the IC50 under setting [2] stood at 8000 nM.

For `C[C@H]1COC2C3CCc4c(C(=O)NCc5cccc(Cl)c5F)c(=O)c(O)c(n43)C(=O)N21` (stereo partly drawn) [Compound 30], the IC50 under setting [3] was determined as 0.536 nM and the IC50 under setting [4] came out at 838 nM.

With `CC1C2C3CCc4c(C(=O)NCc5cccc(Cl)c5F)c(=O)c(O)c(n43)C(=O)N2C[C@@H]1C` (stereo partly drawn) [Compound 102], the IC50 worked out at 1.05 nM under setting [1] and 579 nM under setting [2].

`O=C1c2c(O)c(=O)c(-c3cnn(Cc4ccc(F)cc4F)c3)c3n2C(CC3)C2OCCN12` (stereo not drawn) [Compound 46]: the IC50 under setting [3] turned out to be 34.5 nM and the IC50 under setting [4] turned out to be 222 nM.

For `C[C@@H]1CCOC2C3CCc4c(C(=O)NCc5ccc(F)cc5F)c(=O)c(O)c(n43)C(=O)N21` (stereo partly drawn) [Compound 60], the IC50 reads like this: under setting [3], 0.934 nM; under setting [4], 27.6 nM.

Source of the values: patent US11358711B2, “Tetracyclic heterocycle compounds useful as HIV integrase inhibitors” (Merck Sharp & Dohme Corp., priority 2019, dated 2022).
